# Source: article PMC7539012, “Hyperphosphorylated tau aggregation and cytotoxicity modulators screen identified prescription drugs linked to Alzheimer's disease and cognitive functions” (Scientific Reports, 2020)
# Counter-ions that a name gives are not always drawn.
# System: T1, 1N4R p-tau
# T1 construct: made in house; host or cells: E. coli (PIMAX system)
# Experiment: p-tau aggregation modulator screen of 1280-compound library (ThS fluorescence net change over 16 h);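 also: 30 µM compound with 6 µM p-tau over 16 h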
# Type: biochemical
# Settings: not given
row,Molecule,ThS net change
1,CCCc1ncc(C[n+]2ccccc2C)c(N)n1 [Amprolium hydrochloride],424
2,COc1cccc2c1C(=O)c1c(O)c3c(c(O)c1C2=O)C[C@@](O)(C(C)=O)C[C@@H]3O[C@H]1C[C@H](N)[C@H](O)[C@H](C)O1 [Daunorubicin hydrochloride],235
3,CC[N+](CC)(CC(=O)Nc1c(C)cccc1C)Cc1ccccc1 [Denatonium benzoate],448
4,O=P1(N(CCCl)CCCl)NCCCO1 (stereo not drawn) [Cyclophosphamide],440
5,CCC(=O)O[C@H]1CC[C@H]2[C@@H]3CCC4=CC(=O)CC[C@]4(C)[C@H]3CC[C@]12C [Testosterone propionate],452
6,CC[C@H](C)[C@H]1O[C@]2(CC[C@@H]1C)C[C@@H]1C[C@@H](C/C=C(\C)[C@@H](O[C@H]3C[C@H](OC)[C@@H](O[C@H]4C[C@H](OC)[C@@H](O)[C@H](C)O4)[C@H](C)O3)[C@@H](C)/C=C/C=C3\CO[C@@H]4[C@H](O)C(C)=C[C@@H](C(=O)O1)[C@]34O)O2 [Ivermectin],543
7,Brc1c(NC2=NCCN2)ccc2nccnc12.O=C(O)C(O)C(O)C(=O)O [Brimondine L-Tartrate],418
8,CCC(=O)O[C@@](Cc1ccccc1)(c1ccccc1)[C@@H](C)CN(C)C [Levopropoxyphene napsylate],434
9,CCC1(C)CC(=O)NC(=O)C1 [Bemegride],431
10,Beta-Escin,471

# Same assay, conditions: 1280-compound library screen; ThS fluorescence net change over 16 h
row,Molecule,ThS net change
1,CCCCC[C@H](O)/C=C/[C@@H]1[C@@H](C/C=C\CCCC(=O)O)[C@@H](O)C[C@H]1O [Dinoprost trometamol],384
2,Cc1c(Cl)cccc1Nc1ccccc1C(=O)O [Tolfenamic acid],383
3,CC(=O)NC[C@H]1CN(c2ccc(N3CCOCC3)c(F)c2)C(=O)O1 [Linezolid],405
4,CCOc1ccc(NC(C)=O)cc1 [Phenacetin],400
5,C[C@]12CCC(=O)C=C1CC[C@@H]1[C@@H]2[C@@H](O)C[C@@]2(C)[C@H]1CC[C@]2(O)C(=O)CO [Hydrocortisone base],398
6,CN(C)/N=N/c1[nH]cnc1C(N)=O [Dacarbazine],392
7,COc1ccc(/C=C/C(=O)Nc2ccccc2C(=O)O)cc1OC [Tranilast],392
8,Nc1ccn([C@H]2CC[C@@H](CO)O2)c(=O)n1 [Zalcitabine],410
9,COc1cc(C(=O)N2CCOCC2)cc(OC)c1OC [Trimetozine],404
10,CN(C)CCOC1=Cc2ccccc2Sc2ccc(Cl)cc21 [Zotepine],388
11,CC(C)(Oc1ccc(CCNC(=O)c2ccc(Cl)cc2)cc1)C(=O)O [Bezafibrate],389
12,CC(C)NNC(=O)c1ccncc1.O=P(O)(O)O [Iproniazide phosphate],401
13,"NCC(CC(=O)O)c1ccc(Cl)cc1 (racemic) [Baclofen (R,S)]",407
14,CCCNC(C)C(=O)Nc1ccccc1C (stereo not drawn) [Prilocaine hydrochloride],378
15,COc1cc([S+](C)[O-])ccc1-c1nc2ncccc2[nH]1 (stereo not drawn) [Sulmazole],406
16,COc1ccc(C(=O)N2CCCC2=O)cc1 [Aniracetam],408

# Same assay, conditions: 1280-compound library screen; […]
row,Molecule,ThS net change
1,CC(=O)[N-]S(=O)(=O)c1ccc(N)cc1.O.[Na+] [Sulfacetamide sodic hydrate],393
2,CC(=O)O[C@H]1C[C@H](O[C@H]2[C@@H](O)C[C@H](O[C@H]3[C@@H](O)C[C@H](O[C@H]4CC[C@@]5(C)[C@H](CC[C@@H]6[C@@H]5C[C@@H](O)[C@]5(C)[C@@H](C7=CC(=O)OC7)CC[C@]65O)C4)O[C@@H]3C)O[C@@H]2C)O[C@H](C)[C@H]1O[C@@H]1O[C@H](CO)[C@@H](O)[C@H](O)[C@H]1O [Lanatoside C],411
3,CC(=O)OCC(=O)NCCCOc1cccc(CN2CCCCC2)c1 [Roxatidine Acetate HCl],411
4,CC(C)C[C@H](CN)CC(=O)O [Pregabalin],400

# Same assay, conditions: library screen, ThS fluorescence net change over 16 h with p-tau
row,Molecule,ThS net change
1,O=C(O)c1cc(/N=N/c2ccc(S(=O)(=O)Nc3ccccn3)cc2)ccc1O [Sulfasalazine],282
2,COC(=O)C1=C(C#N)NC(C)=C(C(=O)OC(C)C)C1c1cccc([N+](=O)[O-])c1 (stereo not drawn) [Nilvadipine],266
3,CS(=O)(=O)Nc1ccc([N+](=O)[O-])cc1Oc1ccccc1 [Nimesulide],288
4,CCC(NC(C)C)C(O)c1ccc(O)c(O)c1.CS(=O)(=O)O (stereo not drawn) [Isoetharine mesylate salt],313
5,CCCNCC(O)COc1ccccc1C(=O)CCc1ccccc1 (stereo not drawn) [Propafenone hydrochloride],317
6,CC(CCc1ccc(O)cc1)NCCc1ccc(O)c(O)c1 (stereo not drawn) [Dobutamine hydrochloride],257
7,COc1cc2nc(N3CCN(C(=O)C4COc5ccccc5O4)CC3)nc(N)c2cc1OC (stereo not drawn) [Doxazosin mesylate],310
8,CCN(CC)CCOC(=O)C(c1ccccc1)c1ccccc1 [Adiphenine hydrochloride],318
9,CO[C@H]1/C=C/O[C@@]2(C)Oc3c(C)c(O)c4c(c3C2=O)C2=NC3(CCN(CC(C)C)CC3)NC2=C(NC(=O)/C(C)=C\C=C\[C@H](C)[C@H](O)[C@@H](C)[C@@H](O)[C@@H](C)[C@H](OC(C)=O)[C@@H]1C)C4=O [Rifabutin],267

# Same assay, conditions: p-tau aggregation modulator screen of 1280-compound library; ThS fluorescence net change
row,Molecule,ThS net change
1,Cc1c(N(C)CS(=O)(=O)[O-])c(=O)n(-c2ccccc2)n1C.[Na+] [Dipyrone],363
2,NC(CO)C(=O)NNCc1ccc(O)c(O)c1O (stereo not drawn) [Benserazide hydrochloride],372
3,Cl.Cl.c1ccc2c(c1)CCCc1cc(NCCN3CCOCC3)nnc1-2,345
4,Nc1nc(NC2CC2)c2ncn([C@H]3C=C[C@@H](CO)C3)c2n1 [Abacavir Sulfate],363
5,CN(CCCN1c2ccccc2CCc2ccccc21)CC(=O)c1ccc(Cl)cc1 [Lofepramine],375
6,C[N+]1(C)CCC(=C(c2ccccc2)c2ccccc2)CC1 [Diphemanil methylsulfate],350
7,NC(=O)c1ccc[n+]([C@@H]2O[C@H](COP(=O)([O-])OP(=O)(O)OC[C@H]3O[C@@H](n4cnc5c(N)ncnc54)[C@H](O)[C@@H]3O)[C@@H](O)[C@H]2O)c1 [Nadide],366
8,CN1CCN2c3ccccc3Cc3ccccc3C2C1.Cl (stereo not drawn) [Mianserine hydrochloride],366
9,C#C[C@]1(OC(C)=O)CC[C@H]2[C@@H]3CCC4=C[C@@H](OC(C)=O)CC[C@@H]4[C@H]3CC[C@@]21C [Ethynodiol diacetate],355
10,CCOC(=O)C1=C[C@]2(CC)CCCN3CCc4c(n1c1ccccc41)[C@@H]32 [Vinpocetine],370
11,CCn1cc(C(=O)O)c(=O)c2cc(F)c(N3CCNCC3)cc21 [Norfloxacin],340
12,Cc1ccc(N(CC2=NCCN2)c2cccc(O)c2)cc1 [Phentolamine hydrochloride],334
13,O=c1c2ccccc2[se]n1-c1ccccc1 [Ebselen],348
14,Nc1ccc(C(=O)NCC(=O)O)cc1 [Aminohippuric acid],344
15,CNCCC(Oc1ccc(C(F)(F)F)cc1)c1ccccc1 (stereo not drawn) [Fluoxetine hydrochloride],370

# Same assay, conditions: p-tau aggregation modulator screen of 1280-compound library; […]
row,Molecule,ThS net change
1,O=P1(NCCCl)OCCCN1CCCl (stereo not drawn) [Ifosfamide],374
2,CN(C)CCC(c1ccc(Cl)cc1)c1ccccn1 (stereo not drawn) [Chlorpheniramine maleate],354
3,Cc1cc2c(s1)Nc1ccccc1N=C2N1CCN(C)CC1 [Olanzapine],345
4,CN1Cc2c(N)cccc2C(c2ccccc2)C1 (stereo not drawn) [Nomifensine maleate],340
5,COc1ccc(CN2CCNCC2)c(OC)c1OC [Trimetazidine dihydrochloride],365

# Same assay, conditions: p-tau aggregation modulator screen of the compound library, ThS fluorescence net change
row,Molecule,ThS net change
1,CN1C(=O)CC(c2ccccc2)C1=O (stereo not drawn) [Phensuximide],453
2,CC1CS(=O)(=O)CCN1/N=C/c1ccc([N+](=O)[O-])o1 (stereo not drawn) [Nifurtimox],588
3,CCC(C)(C)C(=O)O[C@H]1C[C@@H](C)C=C2C=C[C@H](C)[C@H](CC[C@@H]3C[C@@H](O)CC(=O)O3)[C@H]21 [Simvastatin],458
4,CC(C)(CO)[C@@H](O)C(=O)NCCCO [Panthenol (D)],429
5,Cc1ccc(-c2cc(C(F)(F)F)nn2-c2ccc(S(N)(=O)=O)cc2)cc1 [Celecoxib],429
6,Cc1onc(-c2c(F)cccc2Cl)c1C(=O)N[C@@H]1C(=O)N2[C@@H]1SC(C)(C)[C@@H]2C(=O)O [Flucloxacillin sodium],443
7,CCOC(=O)Nc1ccc2c(c1)N(C(=O)CCN1CCOCC1)c1ccccc1S2 [Moricizine hydrochloride],473
8,Nc1ccn([C@@H]2O[C@H](CO)[C@@H](O)C2(F)F)c(=O)n1 [Gemcitabine],470
9,CNCC(O)c1ccc(O)c(O)c1 (stereo not drawn) [Racepinephrine HCl],453
10,COc1cc(NS(=O)(=O)c2ccc(N)cc2)ncn1 [Sulfamonomethoxine],419
11,CN1CCC(=C2c3ccccc3CCc3sccc32)CC1.O=C(O)CC(O)C(=O)O [Pizotifen malate],437
12,"Nc1c2c(nc3ccccc13)CCCC2O.O=C(O)/C=C\C(=O)O (racemic) [Hydroxytacrine maleate (R,S)]",423
13,O=C(C1CCCCC1)N1CC(=O)N2CCc3ccccc3C2C1 (stereo not drawn) [Praziquantel],418
14,NC12CC3CC(CC(C3)C1)C2.NC12CC3CC(CC(C3)C1)C2.O=C(O)/C=C/C(=O)O [Adamantamine fumarate],423
15,CCC(=O)O[C@@H](O[P@](=O)(CCCCc1ccccc1)CC(=O)N1C[C@H](C2CCCCC2)C[C@H]1C(=O)O)C(C)C [Fosinopril],587
16,CCOC(=O)[C@H](CCc1ccccc1)N[C@@H](C)C(=O)N1Cc2ccccc2C[C@H]1C(=O)O [Quinapril HCl],417
